Measured values: the supplement of paper PMC10307832

Columns and labels:
Test in all cases: relative viability (nuclei count vs DMSO), 5 days (fraction); higher = more cells survive
[1] = compound: CC[C@H](C)N1C=C(C2=C(C=C(C=C21)C3=CN=C(C=C3)N4CCNCC4)C(=O)NCC5=C(C=C(NC5=O)C)C)C [GSK126] + CS(=O)(=O)CCNCc1ccc(-c2ccc3ncnc(Nc4ccc(OCc5cccc(F)c5)c(Cl)c4)c3c2)o1 [Lapatinib] (partner 2 µM)
Summary of the method: (§1)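 Values are medians from duplicate plates. Each reflects relative viability, defined as the nuclei count of treated wells over that of vehicle wells. Lung cancer cell lines in 1536-well plates were pin-tool dosed one day after seeding with one drug alone or with a fixed anchor-drug dose plus five library-drug doses (not always all listed) in √10 steps, then fixed, stained and imaged at 4× after 5 days.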

[2] = compound: C1CC(C1)(C(=O)O)C(=O)O.[NH2-].[NH2-].[Pt+2] [Carboplatin] + CS(=O)(=O)CCNCc1ccc(-c2ccc3ncnc(Nc4ccc(OCc5cccc(F)c5)c(Cl)c4)c3c2)o1 [Lapatinib] (partner 2 µM)
Summary of the method: as §1

[3] = compound: CC[C@H](C)N1C=C(C2=C(C=C(C=C21)C3=CN=C(C=C3)N4CCNCC4)C(=O)NCC5=C(C=C(NC5=O)C)C)C [GSK126] + Cc1nc(Nc2ncc(C(=O)Nc3c(C)cccc3Cl)s2)cc(N2CCN(CCO)CC2)n1 [Dasatinib] (partner 0.075 µM)
Summary of the method: as §1

[4] = compound: CC[C@H](C)N1C=C(C2=C(C=C(C=C21)C3=CN=C(C=C3)N4CCNCC4)C(=O)NCC5=C(C=C(NC5=O)C)C)C [GSK126] + CC(=O)Nc1cccc(-n2c(=O)n(C3CC3)c(=O)c3c(Nc4ccc(I)cc4F)n(C)c(=O)c(C)c32)c1 [Trametinib] (partner 0.02 µM)
Summary of the method: as §1

| Cell Line | relative viability ([1]; first compound 0.08 µM) | relative viability ([1]; first compound 0.253 µM) | relative viability ([1]; first compound 0.8 µM) | relative viability ([1]; first compound 2.53 µM) | relative viability ([1]; first compound 8 µM) | relative viability ([2]; first compound 0.08 µM) | relative viability ([2]; first compound 0.253 µM) | relative viability ([2]; first compound 0.8 µM) | relative viability ([2]; first compound 2.53 µM) | relative viability ([2]; first compound 8 µM) | relative viability ([3]; first compound 0.08 µM) | relative viability ([3]; first compound 0.253 µM) | relative viability ([3]; first compound 0.8 µM) | relative viability ([3]; first compound 2.53 µM) | relative viability ([3]; first compound 8 µM) | relative viability ([4]; first compound 0.08 µM) | relative viability ([4]; first compound 0.253 µM) | relative viability ([4]; first compound 0.8 µM) | relative viability ([4]; first compound 2.53 µM) | relative viability ([4]; first compound 8 µM) |
| --- | --- | --- | --- | --- | --- | --- | --- | --- | --- | --- | --- | --- | --- | --- | --- | --- | --- | --- | --- | --- |
| NCI-H358 | 0.487 | 0.461 | 0.525 | 0.454 | 0.51 | 0.483 | 0.474 | 0.538 | 0.485 | 0.543 | 0.202 | 0.167 | 0.173 | 0.15 | 0.175 | 0.15 | 0.141 | 0.158 | 0.12 | 0.138 |
| NCI-H2342 |  |  |  |  |  |  |  |  |  |  | 0.358 | 0.288 | 0.312 | 0.314 | 0.315 | 0.786 | 0.739 | 0.815 | 0.869 | 0.984 |
| NCI-H2087 | 1.41 | 0.931 | 1.11 | 1.22 | 1.3 | 1.22 | 0.968 | 0.86 | 0.969 | 0.833 | 1.14 | 0.707 | 0.856 | 0.78 | 0.908 | 0.223 | 0.211 | 0.246 | 0.2 | 0.2 |
| NCI-H596 | 1.11 | 0.932 | 0.951 | 1.11 | 1.08 | 1.21 | 1 | 1.07 | 0.943 | 0.886 | 0.692 | 0.537 | 0.633 | 0.887 | 0.594 | 0.803 | 0.687 | 0.697 | 0.862 | 0.733 |
| ChaGo-K-1 |  |  |  |  |  |  |  |  |  |  | 0.653 | 0.552 | 0.629 | 0.572 | 0.547 | 0.902 | 0.986 | 0.888 | 0.947 | 0.983 |
| SW 1573 | 1.09 | 1.07 | 0.989 | 1.27 | 1.28 | 1.05 | 1.1 | 1.17 | 1.3 | 0.961 | 0.709 | 0.659 | 0.515 | 0.479 | 0.524 | 0.57 | 0.618 | 0.596 | 0.587 | 0.622 |
| LCLC-97TM1 | 1.22 |  | 1.11 | 1.66 | 0.841 | 0.891 |  | 1.02 | 1.08 | 1 | 0.845 | 0.922 | 0.918 | 0.822 | 0.897 | 0.205 | 0.2 | 0.204 | 0.211 | 0.209 |
| HCC-366 | 1.02 | 0.948 | 1.08 | 1.09 | 1.12 | 1.08 | 1.01 | 0.988 | 0.963 | 0.863 | 0.77 | 0.654 | 0.586 | 0.696 | 0.591 | 0.391 | 0.357 | 0.343 | 0.309 | 0.337 |
| HARA | 0.734 | 0.602 | 0.736 | 0.804 | 0.807 | 0.816 | 0.842 | 0.841 | 0.654 | 0.695 | 0.3 | 0.281 | 0.226 | 0.262 | 0.241 | 0.755 | 0.771 | 0.587 | 0.613 | 0.621 |
